# Experimental data: US11534457B2, “Use of dextran sulfate” (priority 2017, dated 2022)
# Tested on: severe traumatic brain injury (sTBI)
# Assay: sTBI in rats, brain gene expression arrays and pathway analysis (Example 9)
# Type: in vivo, Male Wistar rats
# Set-up: key to z score, canonical pathway Dendritic Cell Maturation / z score, canonical pathway Adrenomedullin Signaling pathway / z score, canonical pathway Endothelin-1 Signaling / effect on canonical pathway Adrenomedullin Signaling pathway / effect on canonical pathway Endothelin-1 Signaling / effect on canonical pathway Dendritic Cell Maturation / Ingenuity canonical pathway Adrenomedullin signaling pathway, z score / Ingenuity canonical pathway FLT3 Signaling in Hematopoietic Progenitor Cells, z score / Ingenuity canonical pathway Opioid Signaling Pathway, z score / Ingenuity canonical pathway VDR/RXR Activation, z score / Ingenuity canonical pathway Neuropathic Pain Signaling In Dorsal Horn Neurons, z score / Ingenuity canonical pathway STAT3 Pathway, z score / Ingenuity canonical pathway IL-1 Signaling, z score / Ingenuity canonical pathway IL-6 Signaling, z score / Ingenuity canonical pathway NF-κB Signaling, z score / Ingenuity canonical pathway Role of NFAT in Cardiac Hypertrophy, z score / Ingenuity canonical pathway PPARα/RXRα Activation, z score: *: ambiguous effect
# Description: The experimental protocol used in this study was approved by the Ethical Committee of the Catholic University of Rome, according to international standards and guidelines for animal care. Male Wistar rats of 300-350 g body weight were fed with standard laboratory diet and water ad libitum in a controlled environment. As the anesthetic mixture, the animals received 35 mg/kg b.w. ketamine and 0.25 mg/kg body weight midazolam by i.p. injection. Severe traumatic brain injury (sTBI) was induced by dropping a 450 g weight from 2 m height on to the rat head that had been protected by a metal disk previously fixed on the skull, according to the “weight drop” impact acceleration model (Marmarou et al., A new model of diffuse brain injury in rats. Part I: Pathophysiology and biomechanics. J Neurosurg. 1994; 80: 291-300). […] At the end of each period of treatment, rats were anesthetized again and then immediately sacrificed.
# LMW-DS (Tikomed AB) was provided at a stock concentration of 20 mg/ml and was kept in a temperature-monitored refrigerator at 4° C. LMW-DS aliquots were diluted to the appropriate dosing concentration in sterile saline prior to delivery of a single subcutaneous injection.
# Three doses of LMW-DS were administered subcutaneously 30 minutes post-TBI. The animals were sacrificed at 2 days post-TBI. The animals were divided into the following subgroups:
# Three doses of LMW-DS were administered subcutaneously 30 minutes post-TBI. The animals were sacrificed at 7 days post-TBI. The animals were divided into the following subgroups:
# An in vivo craniectomy was performed on all animals during anesthesia. After carefully removing the rat's skull, the brain was exposed and removed with a surgical spatula and quickly dropped in RNALater and preserved at 4° C. for further processing.
# RNA extraction and array processing was carried out by SourceBioscience. The arrays used were the Agilent Rat expression arrays.
# Statistical analysis was carried out using the Metaboanalyst software package. Gene expression changes of 10% with a p<0.05 were regarded as significant.
# Pathway analysis of the differentially regulated genes was carried out using the Ingenuity pathway analysis package. The analysis was performed with special reference to pathways and molecular processes and diseases associated with neurodegenerative disease, including dementia, Alzheimer's disease, ALS, TBI and stroke, and with scarring and fibrosis, including glaucoma and normal pressure hydrocephalus (NPH) after subarachnoid haemorrhage.
# [1] = 3 repeated doses of 15 mg/kg, 7 days
# [2] = 2 days after TBI, TBI + 1 mg/kg LMW-DS
# [3] = 2 days after TBI, TBI + 1 mg/kg LMW-DS, relative to control
substance,measurement,setting,value
low molecular weight dextran sulfate [LMW-DS],genes with altered TBI-specific expression,"1 mg/kg s.c. 30 min after injury, 2 days",372 genes
same,genes with altered TBI-specific expression,"1 mg/kg s.c. 30 min after injury, 7 days",3602 genes
same,TBI-deregulated genes remaining deregulated relative to healthy controls (of 221),"1 mg/kg, 2 days",22 genes
same,"TBI-deregulated genes remaining deregulated, percent","1 mg/kg, 2 days",10%
same,genes differing from healthy controls,"1 mg/kg, 2 days",209 genes
same,TBI-deregulated genes remaining deregulated relative to healthy controls (of 2741),"1 mg/kg, 7 days",124 genes
same,"TBI-deregulated genes remaining deregulated, percent","1 mg/kg, 7 days",4.5%
same,genes differing from healthy controls,"1 mg/kg, 7 days",282 genes
same,genes with altered TBI-specific expression,"5 mg/kg s.c. 30 min after TBI, 2 days",702 genes
same,genes with altered TBI-specific expression,"5 mg/kg s.c. 30 min after TBI, 7 days",3852 genes
same,TBI-deregulated genes remaining deregulated relative to healthy controls (of 221),"5 mg/kg, 2 days",51 genes
same,"TBI-deregulated genes remaining deregulated, percent","5 mg/kg, 2 days",23%
same,genes differing from healthy controls,"5 mg/kg, 2 days",258 genes
same,TBI-deregulated genes remaining deregulated relative to healthy controls (of 2741),"5 mg/kg, 7 days",169 genes
same,"TBI-deregulated genes remaining deregulated, percent","5 mg/kg, 7 days",6.1%
same,genes differing from healthy controls,"5 mg/kg, 7 days",398 genes
same,genes with altered TBI-specific expression,"15 mg/kg s.c. 30 min after TBI, 2 days",247 genes
same,genes with altered TBI-specific expression,"15 mg/kg s.c. 30 min after TBI, 7 days",3901 genes
same,TBI-deregulated genes remaining deregulated relative to healthy controls (of 221),"15 mg/kg, 2 days",19 genes
same,"TBI-deregulated genes remaining deregulated, percent","15 mg/kg, 2 days",8.5%
same,genes differing from healthy controls,"15 mg/kg, 2 days",47 genes
same,TBI-deregulated genes remaining deregulated relative to healthy controls (of 2741),"15 mg/kg, 7 days",85 genes
same,"TBI-deregulated genes remaining deregulated, percent","15 mg/kg, 7 days",3.1%
same,genes differing from healthy controls,"15 mg/kg, 7 days",158 genes
same,TBI-deregulated genes remaining deregulated relative to healthy controls (of 2741),[1],116 genes
same,"TBI-deregulated genes remaining deregulated, percent",[1],4.25%
same,genes differing from healthy controls,[1],234 genes
same,effect on canonical pathway Adrenomedullin Signaling pathway,[2],*
same,effect on canonical pathway Dendritic Cell Maturation,[2],*
same,effect on canonical pathway Endothelin-1 Signaling,[2],*
same,effect on canonical pathway IL-1 Signaling,[2],Inhibited
same,effect on canonical pathway Osteoarthritis Pathway,[2],Inhibited
same,effect on canonical pathway Role of NFAT in Regulation of the Immune Response,[2],Activated
same,"z score, Abdominal cancer",[2],−1.538
same,"z score, Abdominal carcinoma",[2],−1.715
same,"z score, Abdominal neoplasm",[2],−0.154
same,"z score, Activation of blood cells",[2],0.086
same,"z score, Activation of cells",[2],0.836
same,"z score, Activation of leukocytes",[2],0.086
same,"z score, Activation of lymphocytes",[2],−1.158
same,"z score, Adhesion of tumor cell lines",[2],2.074
same,"z score, Apoptosis",[2],−0.337
same,"z score, Apoptosis of muscle cells",[2],0.041
same,"z score, Behavior",[2],1.334
same,"z score, Binding of tumor cell lines",[2],2.397
same,"z score, Carcinoma",[2],−0.127
same,"z score, Cell death",[2],−0.793
same,"z score, Cell death of blood cells",[2],1.082
same,"z score, Cell death of immune cells",[2],1.001
same,"z score, Cell movement",[2],1.948
same,"z score, Cell movement of muscle cells",[2],−0.26
same,"z score, Cell movement of vascular smooth muscle cells",[2],−0.588
same,"z score, Cell proliferation of T lymphocytes",[2],−1.097
same,"z score, Cellular homeostasis",[2],0.19
same,"z score, Concentration of prostaglandin",[2],−0.911
same,"z score, Development of connective tissue cells",[2],−0.332
same,"z score, Differentiation of bone cells",[2],−0.341
same,"z score, Differentiation of connective tissue cells",[2],0.73
same,"z score, Differentiation of hematopoietic progenitor cells",[2],0.487
same,"z score, Differentiation of osteoclasts",[2],−0.223
same,"z score, Digestive organ tumor",[2],−0.604
same,"z score, Experimentally-induced arthritis",[2],−0.816
same,"z score, Extracranial solid tumor",[2],0.056
same,"z score, Genital tumor",[2],0.13
same,"z score, Incidence of tumor",[2],−1.131
same,"z score, Inflammation of absolute anatomical region",[2],−1.359
same,"z score, Inflammation of body cavity",[2],−1.757
same,"z score, Inflammation of joint",[2],−0.053
same,"z score, Inflammation of organ",[2],−1.295
same,"z score, Inflammatory response",[2],1.159
same,"z score, Interaction of mononuclear leukocytes",[2],1.626
same,"z score, Leukocyte migration",[2],1.296
same,"z score, Leukopoiesis",[2],1.185
same,"z score, Locomotion",[2],−0.039
same,"z score, Lymphopoiesis",[2],0.583
same,"z score, Malignant solid tumor",[2],−0.562
same,"z score, Migration of cells",[2],2.093
same,"z score, Necrosis",[2],−0.361
same,"z score, Non-hematologic malignant neoplasm",[2],−0.243
same,"z score, Pelvic tumor",[2],−0.651
same,"z score, Proliferation of blood cells",[2],−1.083
same,"z score, Proliferation of lymphatic system cells",[2],−1.112
same,"z score, Proliferation of lymphocytes",[2],−0.852
same,"z score, Quantity of blood cells",[2],−1.479
same,"z score, Quantity of bone",[2],−1.985
same,"z score, Quantity of cells",[2],−0.765
same,"z score, Quantity of connective tissue cells",[2],0.637
same,"z score, Quantity of leukocytes",[2],−1.163
same,"z score, Quantity of lymphatic system cells",[2],−0.701
same,"z score, Quantity of phagocytes",[2],−2.061
same,"z score, Rheumatic Disease",[2],−0.053
same,"z score, Size of body",[2],−4.771
same,"z score, Solid tumor",[2],−0.186
same,"z score, Survival of organism",[2],−0.095
same,"z score, Synthesis of hormone",[2],0.977
same,"z score, Thrombus",[2],1
same,"z score, Transcription of RNA",[2],−2.488
same,"z score, Transport of molecule",[2],2.421
same,"z score, canonical pathway Adrenomedullin Signaling pathway",[3],*
same,"z score, canonical pathway Dendritic Cell Maturation",[3],*
same,"z score, canonical pathway Endothelin-1 Signaling",[3],*
same,"z score, canonical pathway IL-1 Signaling",[3],−1
same,"z score, canonical pathway Osteoarthritis Pathway",[3],−1.342
same,"z score, canonical pathway Role of NFAT in Regulation of the Immune Response",[3],0.378
